The NIST ThermoML archive (doi:10.1016/j.jct.2009.08.010)
Numbers after ± are expanded uncertainties.

Test: molar enthalpy of transition or fusion
Details: 298.15 K; Crystal; Flow calorimetry

Cc1cccc2c1sc1ccccc12 [4-methyldibenzothiophene]
molar enthalpy of transition or fusion: 21.6 ± 0.335 kcal/mol
